From US20040053913A1, “Process for preparing 6-alkylidene penem derivatives” (priority 2002, published 2004)
Where a name gives a salt, the structure may show the parent alone.

Key:
[1] = biological target: class C enzyme AmpC from Enterobacter cloaca (Enterobacter cloacae, UniProt P05364); assay: β-Lactamase inhibition, spectrophotometric nitrocefin hydrolysis assay, AmpC; format: biochemical; settings: enzyme 2.1 nM; 10 minutes preincubation at 25° C.; nitrocefin 50 μg/ml; 50 mM PO4, pH 7.0; read-out: IC50 (nM) Amp-C
Method: (§1) IC50 Determination for the Penem Inhibitor
(§2) β-Lactamase inhibitory activity of the penem inhibitors was determined spectrophotometrically as described by Bush et al., [Bush, K., Macalintal, C., Rasmussen, B. A., Lee, V. and Yang, Y. Antimicrobial Agents and Chemotherapy 1993, 37, 851]. Homogeneously purified class A β-lactamases TEM-1 from E. coli and Imi-1 from Enterobacter cloacae, class B enzyme CcrA from Bacteroides fragilis and class C enzyme AmpC from Enterobacter cloaca were employed in the assay. The enzyme concentrations for TEM-1, Imi-1, CcrA and AmpC were 4.3, 7.1, 1.2 and 2.1 nM, respectively. A wide range of inhibitor concentrations were prepared in 50 mM PO4, pH 7.0 to include the possible IC50 values. The substrate used to initiate the enzyme reaction was nitrocefin at 50 μg/ml in the same buffer as the inhibitor. Initially the enzyme and inhibitor (20 μl each) were preincubated for 10 minutes at 25° C. prior to the addition of 160 μl volume of nitrocefin. Initial rates of hydrolysis were monitored for 5 minutes at 495 nm using a Molecular Devices Spectra Max 250 with kinetic protocol of SoftMax Program. Readings from the Spectra Max 250 were exported and transferred to Microsoft Excel. The percent of inhibition of each inhibitor concentration was calculated based on the control enzyme activity. The inhibitor concentration that caused a 50% reduction in the enzymatic activity (IC50) was determined graphically.

[2] = biological target: class A β-lactamase Imi-1 from Enterobacter cloacae (Enterobacter cloacae, UniProt Q46991); assay: β-Lactamase inhibition, spectrophotometric nitrocefin hydrolysis assay, Imi-1; format: biochemical; settings: enzyme 7.1 nM; 10 minutes preincubation at 25° C.; nitrocefin 50 μg/ml; 50 mM PO4, pH 7.0
Method: as §1, §2

[3] = biological target: class B enzyme CcrA from Bacteroides fragilis (Bacteroides fragilis, UniProt P25910); assay: β-Lactamase inhibition, spectrophotometric nitrocefin hydrolysis assay, CcrA; format: biochemical; settings: enzyme 1.2 nM; 10 minutes preincubation at 25° C.; nitrocefin 50 μg/ml; 50 mM PO4, pH 7.0; read-out: IC50 (nM) Ccr-A
Method: as §1, §2

[4] = biological target: class A β-lactamases TEM-1 from E. coli (Escherichia coli, UniProt P62593); assay: β-Lactamase inhibition, spectrophotometric nitrocefin hydrolysis assay, TEM-1; format: biochemical; settings: enzyme 4.3 nM; 10 minutes preincubation at 25° C.; nitrocefin 50 μg/ml; 50 mM PO4, pH 7.0
Method: as §1, §2

[5] = Comparative thermal stability in a solid state, residual ratio checked by HPLC; format: physicochemical; settings: for Residual Ratio (%): Temp. 40° C. in a solid state, HPLC
Text: One important aspect of the present invention relates to the use of stable bromopenem intermediate 16. The stability of the intermediate is relevant to the aldol condensation step where the decomposition is minimized [as well as to the shelf life stability]. In this invention the key intermediate 16, where R=para-Nitrobenzyl group is a stable and a crystalline intermediate. […] (Table 1) This remarkable stability of intermediate 16 enhances the shelf-life time of the compound as well as the scale-up feasibility. As mentioned above, protection of carboxyl group with para-Nitrobenzyl group reduces the number of steps in the present process of preparing the final compound of structure I. The crystalline nature of the intermediate was established by X-ray diffraction studies.
Column: Inertsil SIL 100-5 4.6×150 mm (GL Science Inc.)
Mobile phase; Ethylacetae: n-hexane (10:35 vv)
Wave length: […]; Flow rate: 1.0 ml/min @ Room temperature.

class B enzyme CcrA from Bacteroides fragilis, sequence (P25910 19-249): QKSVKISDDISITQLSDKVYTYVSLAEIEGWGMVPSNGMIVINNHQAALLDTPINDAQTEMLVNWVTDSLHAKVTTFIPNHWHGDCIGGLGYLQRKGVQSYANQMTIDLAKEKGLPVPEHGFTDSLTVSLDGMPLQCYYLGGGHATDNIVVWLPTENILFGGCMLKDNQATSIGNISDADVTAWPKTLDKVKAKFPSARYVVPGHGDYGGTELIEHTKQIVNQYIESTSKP
class C enzyme AmpC from Enterobacter cloaca, sequence (P05364 21-381): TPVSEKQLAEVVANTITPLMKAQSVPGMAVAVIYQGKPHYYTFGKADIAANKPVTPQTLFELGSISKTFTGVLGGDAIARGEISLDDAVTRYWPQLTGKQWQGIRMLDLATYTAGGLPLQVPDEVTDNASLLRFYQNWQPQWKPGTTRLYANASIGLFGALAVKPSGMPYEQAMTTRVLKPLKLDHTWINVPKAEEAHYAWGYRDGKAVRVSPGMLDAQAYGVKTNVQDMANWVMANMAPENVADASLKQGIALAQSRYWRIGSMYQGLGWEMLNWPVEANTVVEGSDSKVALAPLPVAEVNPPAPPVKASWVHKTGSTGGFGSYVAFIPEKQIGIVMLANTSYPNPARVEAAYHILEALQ
class A β-lactamase Imi-1 from Enterobacter cloacae, sequence (Q46991 entry or part of it): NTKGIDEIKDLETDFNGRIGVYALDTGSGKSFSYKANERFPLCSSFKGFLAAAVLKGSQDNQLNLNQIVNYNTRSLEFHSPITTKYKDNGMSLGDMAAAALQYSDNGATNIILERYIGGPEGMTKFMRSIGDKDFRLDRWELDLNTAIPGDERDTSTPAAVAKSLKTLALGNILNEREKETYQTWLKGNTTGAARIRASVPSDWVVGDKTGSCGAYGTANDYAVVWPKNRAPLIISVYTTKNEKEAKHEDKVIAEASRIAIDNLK
class A β-lactamases TEM-1 from E. coli, sequence (P62593 24-286 limits assumed): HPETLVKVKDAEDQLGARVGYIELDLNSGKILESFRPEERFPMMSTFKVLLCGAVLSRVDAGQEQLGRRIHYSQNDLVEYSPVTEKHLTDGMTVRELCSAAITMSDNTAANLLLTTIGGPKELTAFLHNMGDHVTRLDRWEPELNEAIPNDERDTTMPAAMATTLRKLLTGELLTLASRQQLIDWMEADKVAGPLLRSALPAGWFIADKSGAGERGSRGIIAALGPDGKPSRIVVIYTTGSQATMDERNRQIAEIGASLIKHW

Molecule | IC50 [1] [nM] | IC50 [2] [nM] | IC50 [3] [nM] | IC50 [4] [nM] | comparative thermal stability (in words) ([5]; intermediate 16 versus intermediate Q) | Residual Ratio (%) ([5]; Day 0) | Residual Ratio (%) ([5]; Day 1) | Residual Ratio (%) ([5]; Day 2) | Residual Ratio (%) ([5]; Day 4) | Residual Ratio (%) ([5]; Day 7) | Residual Ratio (%) ([5]; Day 14)
O=C(O)C1=CS[C@@H]2/C(=C\c3c[nH]c(Cc4ccccc4)n3)C(=O)N12 [Example 3, (5R), (6Z)-6-(2-Benzyl-1H-imidazol-4-ylmethylene)-7-oxo-4-thia-1-aza-bicyclo[3.2.0]hept-2-ene-2-carboxylic Acid Sodium Salt] | 0.8 | 1300 | 190 | 1.2 |  |  |  |  |  |  | 
O=C(O)C1=CS[C@@H]2/C(=C\c3c[nH]c(-c4nccs4)n3)C(=O)N12 [Example 4, (5R), (6Z)-6-(2-thiazol-2-yl-1H-imidazol-4-ylmethylene)-7-oxo-4-thia-1-aza-bicyclo[3.2.0]hept-2-ene-2-carboxylic Acid Sodium Salt] | 2.3 | 5.8 | 230 | 0.4 |  |  |  |  |  |  | 
O=C(O)C1=CS[C@@H]2/C(=C\c3c[nH]c(-c4ccccc4)n3)C(=O)N12 [Example 6, (5R), (6Z)-6-(2-phenyl-1H-imidazol-4-ylmethylene)-7-oxo-4-thia-1-aza-bicyclo[3.2.0]hept-2-ene-2-carboxylic Acid] | 2.9 | 11 | 220 | 5.6 |  |  |  |  |  |  | 
O=C(OCc1ccc([N+](=O)[O-])cc1)C1=CS[C@@H]2[C@@H](Br)C(=O)N12 [Example 16] |  |  |  |  | more stable than the intermediate Q |  |  |  |  |  | 
O=C(OCc1ccc([N+](=O)[O-])cc1)C1=CS[C@@H]2[C@@H](Br)C(=O)N12 [Formula 16, 4-nitrobenzyl (5R,6S)-6-bromopenem-3-carboxylate] |  |  |  |  |  | 100.0 | 100.0 | 100.0 | 100.0 | 98.7 | 98.4
COc1ccc(COC(=O)C2=CS[C@@H]3[C@@H](Br)C(=O)N23)cc1 [Formula Q, reference compound] |  |  |  |  |  | 100.0 | 99.7 | 95.3 | 72.9 | 69.8 | 
(5R), (6Z)-6-(1-Methyl-2-thiazol-2-yl-1H-imidazol-4-ylmethylene)-7-oxo-4-thia-1-aza-bicyclo[3.2.0]hept-2-ene-2-carboxylic Acid Sodium Salt [Example 5] | 5.6 | 68 | 260 | 5.2 |  |  |  |  |  |  | 
(5R), (6Z)-6-(3,1′-Dimethyl-3H,1′H-[2,4′]biimidazolyl-4-ylmethylene)-7-oxo-4-thia-1-aza-bicyclo[3.2.0]hept-2-ene-2-carboxylic Acid Sodium Salt [Example 2] | 2.1 | 6 | 250 | 4.1 |  |  |  |  |  |  | 
